Reference: patent US20150133492A1, “N-desmethyldauricine, A Novel Autophagic Enhancer for Treatment of Cancers and Neurodegenerative Conditions Thereof” (Macau University of Science and Technology, priority 2013, published 2015)

The compounds below were run on HeLa cells expressing GFP-LC3 (assay: GFP-LC3 puncta in the presence of specific inhibitors). Settings: LP-4 10 μM, 4 hours, CC 10 μM, STO-609 25 μM, BM 10 μM.
Format: cell-based, human
Experimental: GFP-LC3 puncta formation was quantified as previously described^15. In brief, HeLa cells expressing GFP-LC3 were treated with N-desmethyldauricine (LP-4, 10 μM) in the presence of AMPK inhibitor, compound C (CC, 10 μM), CaMKK-β inhibitor, STO-609 (25 μM) or Calcium chelator, BAPTA/AM (BM, 10 μM) for 4 hours. The cells were then fixed in 4% paraformaldehyde for 20 minutes at room temperature and then rinsed with PBS. Slides were mounted with FluorSave™ mounting media (Calbiochem) and examined by fluorescence microscopy. To quantify for autophagy, the percentage of cells with punctate GFP-LC3 fluorescence was calculated by counting the number of the cells with punctate GFP-LC3 fluorescence in GFP-positive cells. A minimum of 150 cells from 3 randomly selected fields was scored.
For `CC(=O)OCOC(=O)CN(CC(=O)OCOC(C)=O)c1ccccc1OCCOc1ccccc1N(CC(=O)OCOC(C)=O)CC(=O)OCOC(C)=O` [BAPTA/AM], the “N-desmethyldauricine-induced GFP-LC3 puncta formation in presence of inhibitor” value was “significant reduction”. In the case of `O=C(O)c1ccc2c3c1cccc3c(=O)n1c3ccccc3nc21` [STO-609], the “N-desmethyldauricine-induced GFP-LC3 puncta formation in presence of inhibitor” value is reported as “significant reduction”. In the case of `c1cc(-c2cnn3cc(-c4ccc(OCCN5CCCCC5)cc4)cnc23)ccn1` [compound C], the “N-desmethyldauricine-induced GFP-LC3 puncta formation in presence of inhibitor” value is reported as “significant reduction”.
